Data as given in patent publication US8608842B2, “Infrared absorbing composition, infrared absorbing ink, recorded article, image recording method, and image detecting method” (FUJIFILM Corporation, priority 2010, dated 2013).
Like-named read-outs stand apart in the source and are kept apart here.

Key:
Assay type in all cases: physicochemical
[1] = Ultraviolet curable ink of Example 4: reflected light of mark for copy protection, before and after xenon irradiation; details: xenon light of 70,000 lux, 72 hours; variation compared to the value before irradiation
Experimental: By mixing the components of the composition shown below, an ultraviolet curable ink having an infrared absorbing property was prepared.
By using the ultraviolet curable ink thus obtained, a mark for copy protection was printed on the same base paper as that used in Example 1 by Gravure printing. On top of the printed mark for copy protection, each of the three kinds of a process ink (FDOL Yellow, FDOL Magenta, and FDOL Cyan, trade names, manufactured by TOYO INK MFG. CO., LTD.) was applied as a layer by Gravure printing, or a mixture ink in which the three kinds of a process ink are mixed was applied as a layer by Gravure printing to hide the mark for copy protection, thus obtaining a printed article.
The mark for copy protection that is hidden by the process ink was irradiated with infrared light using a linear sensor (trade name: TCD1500C, manufactured by Toshiba) in which the infrared cut-off filter of linear sensor was replaced with an infrared transmitting filter (trade name: IR83, manufactured by Hoya) as a detection device, and the reflected light was detected simultaneously.
The reflection light intensity in the area of the mark for copy protection at the time of detecting the mark was divided by the reflection light intensity of the area outside the mark for copy protection. The resulting value of the comparative infrared absorbing agent A was set to 1, and a ratio of the resulting value with respect to the resulting value of the comparative infrared absorbing agent A was calculated for each compound.
In addition, the obtained printed article was irradiated continuously with xenon light of 70,000 lux for 72 hours by using a Xenon lamp. After the irradiation, similar to above, the reflection light intensity of the area of the mark for copy protection was divided by the reflection light intensity of the area outside the mark for copy protection, and the variation ratio [%] compared to the value before the irradiation was calculated to use it as an index for evaluation of light resistance.

[2] = Bar code pattern reading (PCS) of printed article before and after xenon light irradiation (light resistance); details: xenon light of 70,000 lux, 200 hours
Experimental: By mixing the components of the composition shown below, the infrared absorbing printing ink (1) was prepared.
By using each of the infrared absorbing printing ink obtained above, a bar code pattern was formed on a regular paper (trade name: MP-120, manufactured by PLUS Corporation), i.e., a base paper, by Gravure printing.
Subsequently, on the formed bar code pattern, another bar code pattern was additionally formed by using the infrared absorbing ink (2) having the composition shown below.
Next, on top of the bar code patterns formed by disposing two layers, three kinds of process inks having infrared transmittance (FDOL Yellow, FDOL Magenta, and FDOL Cyan, manufactured by TOYO INK MFG. CO., LTD. (trade names, manufactured by TOYO INK MFG. CO., LTD.) were further applied by Gravure printing to form a colored layer made of three visible colors (cyan, magenta, and yellow). As a result, a printed article having a bar code pattern disposed inside the matter was produced.
Two kinds of semiconductor laser beam having wavelengths of 830 nm and 905 nm respectively were irradiated onto the thus obtained printed article, and the detection was made by using a filter which cuts off the emission light having wavelength of 950 nm or less. As a result, it was possible to detect the pattern formed by the infrared absorbing ink.
Subsequently, xenon light of 70,000 lux was irradiated continuously for 200 hours onto the printed article by using a xenon lamp. After that, the reading state of the bar code pattern after the irradiation was evaluated. For the evaluation, PCS (print•contrast•signal) of 0.6 or more was evaluated as “good,” and PCS (print•contrast•signal) of less than 0.6 was evaluated as “bad.” The evaluation results are shown in Table 2 below.
The printed article was prepared in the same manner as Example 1 except that the solvent (a mixture solvent of toluene and methyl isobutyl ketone) in the composition of the infrared absorbing ink (1) and (2) is replaced with n-octane (SP value: 7.6), butyl acetate (SP value: 8.5), or isopropyl alcohol (IPA; SP values: 11.5), and evaluated.
The comparative printed article was prepared in the same manner as Example 1 except that the solvent (a mixture solvent of toluene and methyl isobutyl ketone) in the composition of the infrared absorbing ink (1) and (2) is replaced with n-pentane (SP value: 7.0; Example 2) or ethanol (SP value: 12.7; Example 3), and evaluated.

[3] = Solubility of IR coloring material in toluene at 25° C.
Experimental: Specifics are as follows.
First, a tetrahydrofuran (THF) solution prepared by adding the IR coloring material to TI-IF is measured by a spectrophotometer and a calibration curve is constructed. Next, a liquid is prepared by adding the IR coloring material to toluene to the level that there is a part of the coloring material left undissolved. The resulting liquid is subjected to ultrasonication for 10 minutes while being maintained at 25° C., and allowed to stand overnight at 25° C. The THF solution obtained after the standing is filtered using a 0.2 μm filter. The filtrate is diluted so that it falls within the linear range of the calibration curve, the absorbance is measured, and quantification is made using the calibration curve.
The solubility shown in Table 1 was measured according to the method described below. Specifics are as follows.
First, the THF solution prepared by adding the IR coloring material to tetrahydrofuran (THF) was measured by a spectrophotometer, and the calibration curve was established. Next, a liquid was prepared by adding the IR coloring material to toluene to the level that there is a part of coloring material left undissolved. The resulting liquid was subjected to ultrasonication for 10 minutes while being kept at 25° C., and allowed to stand overnight at 25° C. The THF solution obtained after the standing was filtered using a 0.2 μm filter. The filtrate was diluted so that it falls within the linear range of the calibration curve, and the absorbance was measured. Based on the measured value, the solubility was quantified using the calibration curve.

[4] = Example 2, ink solvent n-pentane (SP value: 7.0)
[5] = Example 3, ink solvent ethanol (SP value: 12.7)
[6] = ink solvent IPA (SP value: 11.5)
[7] = ink solvent butyl acetate (SP value: 8.5)
[8] = ink solvent n-octane (SP value: 7.6)
[9] = ink solvent toluene/methyl isobutyl ketone = 70/30

SMILES	Variation amount after irradiation [%] [1] [%]	Reading after irradiation [2, 4]	Reading after irradiation [2, 5]	Reading after irradiation [2, 6]	Reading after irradiation [2, 7]	Reading after irradiation [2, 8]	Reading after irradiation [2, 9]	Solubility [mg/ml] Solvent: toluene ([3]; toluene, 25° C.) [mg/mL]	Solubility [mg/ml] Solvent: toluene [3] [mg/mL]
CCOc1c2c(c(OCC)c3ccccc13)-c1nc-2nc2[n-]c(nc3nc(nc4[n-]c(n1)c1c(OCC)c5ccccc5c(OCC)c41)-c1c-3c(OCC)c3ccccc3c1OCC)c1c(OCC)c3ccccc3c(OCC)c21.[Cu+2] [Compound 23]	4	Bad (PCS (print•contrast•signal) of less than 0.6 was evaluated as “bad.”)	Bad (PCS (print•contrast•signal) of less than 0.6 was evaluated as “bad.”)	Good (PCS (print•contrast•signal) of 0.6 or more was evaluated as “good,”)	Good (PCS (print•contrast•signal) of 0.6 or more was evaluated as “good,”)	Good (PCS (print•contrast•signal) of 0.6 or more was evaluated as “good,”)	Good (PCS (print•contrast•signal) of 0.6 or more was evaluated as “good,”)	1.75	
CCCCOc1c2c(c(OCCCC)c3ccccc13)C1=Nc3c4c(OCCCC)c5ccccc5c(OCCCC)c4c4[n]3[Cu][n]3c(c5c(OCCCC)c6ccccc6c(OCCCC)c5c3=NC3=NC(=N4)c4c3c(OCCCC)c3ccccc3c4OCCCC)=NC2=N1 [Compound 24]	3	Bad (PCS (print•contrast•signal) of less than 0.6 was evaluated as “bad.”)	Bad (PCS (print•contrast•signal) of less than 0.6 was evaluated as “bad.”)	Good (PCS (print•contrast•signal) of 0.6 or more was evaluated as “good,”)	Good (PCS (print•contrast•signal) of 0.6 or more was evaluated as “good,”)	Good (PCS (print•contrast•signal) of 0.6 or more was evaluated as “good,”)	Good (PCS (print•contrast•signal) of 0.6 or more was evaluated as “good,”)	16	
CCCCCCCCOc1c2c(c(OCCCCCCCC)c3ccccc13)C1=Nc3c4c(OCCCCCCCC)c5ccccc5c(OCCCCCCCC)c4c4[n]3[Cu][n]3c(c5c(OCCCCCCCC)c6ccccc6c(OCCCCCCCC)c5c3=NC3=NC(=N4)c4c3c(OCCCCCCCC)c3ccccc3c4OCCCCCCCC)=NC2=N1 [Compound 25]	2	Bad (PCS (print•contrast•signal) of less than 0.6 was evaluated as “bad.”)	Bad (PCS (print•contrast•signal) of less than 0.6 was evaluated as “bad.”)	Good (PCS (print•contrast•signal) of 0.6 or more was evaluated as “good,”)	Good (PCS (print•contrast•signal) of 0.6 or more was evaluated as “good,”)	Good (PCS (print•contrast•signal) of 0.6 or more was evaluated as “good,”)	Good (PCS (print•contrast•signal) of 0.6 or more was evaluated as “good,”)	27	
CCCCCCCCOc1c2c(c(OCCCCCCCC)c3ccccc13)C1=Nc3c4c(OCCCCCCCC)c5ccccc5c(OCCCCCCCC)c4c4[n]3[Zn][n]3c(c5c(OCCCCCCCC)c6ccccc6c(OCCCCCCCC)c5c3=NC3=NC(=N4)c4c3c(OCCCCCCCC)c3ccccc3c4OCCCCCCCC)=NC2=N1 [Compound 27]	4	Bad (PCS (print•contrast•signal) of less than 0.6 was evaluated as “bad.”)	Bad (PCS (print•contrast•signal) of less than 0.6 was evaluated as “bad.”)	Good (PCS (print•contrast•signal) of 0.6 or more was evaluated as “good,”)	Good (PCS (print•contrast•signal) of 0.6 or more was evaluated as “good,”)	Good (PCS (print•contrast•signal) of 0.6 or more was evaluated as “good,”)	Good (PCS (print•contrast•signal) of 0.6 or more was evaluated as “good,”)		25
Nc1ccccc1Sc1c2c(c(Sc3ccccc3N)c3c1C1=Nc4c5c(Sc6ccccc6N)c6c(c(Sc7ccccc7N)c5c5[n]4[Cu][n]4c(c7c(Sc8ccccc8N)c8c(c(Sc9ccccc9N)c7c4=NC4=NC(=N5)c5c(Sc7ccccc7N)c7c(c(Sc9ccccc9N)c54)NC4C=CC=CC4S7)SC4C=CC=CC4N8)=NC3=N1)NC1C=CC=CC1S6)SC1C=CC=CC1N2 (stereo not drawn) [Compound 69]	4	Bad (PCS (print•contrast•signal) of less than 0.6 was evaluated as “bad.”)	Bad (PCS (print•contrast•signal) of less than 0.6 was evaluated as “bad.”)	Good (PCS (print•contrast•signal) of 0.6 or more was evaluated as “good,”)	Good (PCS (print•contrast•signal) of 0.6 or more was evaluated as “good,”)	Good (PCS (print•contrast•signal) of 0.6 or more was evaluated as “good,”)	Good (PCS (print•contrast•signal) of 0.6 or more was evaluated as “good,”)	12	
Nc1ccccc1Sc1c2c(c(Sc3ccccc3N)c3c1C1=Nc4c5c(Sc6ccccc6N)c6c(c(Sc7ccccc7N)c5c5[n]4[V](=[O])[n]4c(c7c(Sc8ccccc8N)c8c(c(Sc9ccccc9N)c7c4=NC4=NC(=N5)c5c(Sc7ccccc7N)c7c(c(Sc9ccccc9N)c54)NC4C=CC=CC4S7)SC4C=CC=CC4N8)=NC3=N1)NC1C=CC=CC1S6)SC1C=CC=CC1N2 (stereo not drawn) [Compound 71]	3	Bad (PCS (print•contrast•signal) of less than 0.6 was evaluated as “bad.”)	Bad (PCS (print•contrast•signal) of less than 0.6 was evaluated as “bad.”)	Good (PCS (print•contrast•signal) of 0.6 or more was evaluated as “good,”)	Good (PCS (print•contrast•signal) of 0.6 or more was evaluated as “good,”)	Good (PCS (print•contrast•signal) of 0.6 or more was evaluated as “good,”)	Good (PCS (print•contrast•signal) of 0.6 or more was evaluated as “good,”)	16	
CCCCCCCCN1/C(=C/C=C/C=C/C=C/C2=[N+](CCCCCCCC)c3ccc4ccccc4c3C2(C)C)C(C)(C)c2c1ccc1ccccc21.Cc1ccc(S(=O)(=O)[O-])cc1 [reference compound]	21						Bad (PCS (print•contrast•signal) of less than 0.6 was evaluated as “bad.”)	43	
